Reference: ChEMBL document CHEMBL3784933, “Synthesis and antitumor evaluation of trimethoxyanilides based on 4(3H)-quinazolinone scaffolds” (2016)

Key:
Assay type in all cases: functional
[1] = Cytotoxicity against human SF268 cells assessed as growth inhibition at 10 uM after 48 hrs by SRB assay; conditions: SF-268, 48 h, read-out: GI
MDA-MB-231 = experiment: Cytotoxicity against human MDA-MB-231 cells assessed as growth inhibition at 10 uM after 48 hrs by SRB assay; conditions: MDA-MB-231, 48 h, read-out: GI
CCRF-CEM = experiment: Cytotoxicity against human CCRF-CEM cells assessed as growth inhibition at 10 uM after 48 hrs by SRB assay; conditions: read-out: GI
SN12C = experiment: Cytotoxicity against human SN12C cells assessed as growth inhibition at 10 uM after 48 hrs by SRB assay; conditions: read-out: GI
[2] = Cytotoxicity against human SKOV3 cells assessed as growth inhibition at 10 uM after 48 hrs by SRB assay; conditions: SK-OV-3, 48 h, read-out: GI
[3] = Cytotoxicity against human PC3 cells assessed as growth inhibition at 10 uM after 48 hrs by SRB assay; conditions: PC-3, 48 h, read-out: GI
SK-MEL-2 = experiment: Cytotoxicity against human SK-MEL-2 cells assessed as growth inhibition at 10 uM after 48 hrs by SRB assay; conditions: SK-MEL-2, 48 h, read-out: GI
[4] = Cytotoxicity against human SF295 cells assessed as growth inhibition at 10 uM after 48 hrs by SRB assay; conditions: SF-295, 48 h, read-out: GI
SK-MEL-5 = experiment: Cytotoxicity against human SK-MEL-5 cells assessed as growth inhibition at 10 uM after 48 hrs by SRB assay; conditions: SK-MEL-5, 48 h, read-out: GI
[5] = Cytotoxicity against human UACC62 cells assessed as growth inhibition at 10 uM after 48 hrs by SRB assay; conditions: UACC-62, 48 h, read-out: GI
[6] = Cytotoxicity against human NCI-ADR-RES cells assessed as growth inhibition at 10 uM after 48 hrs by SRB assay; conditions: read-out: GI
[7] = Cytotoxicity against human UO31 cells assessed as growth inhibition at 10 uM after 48 hrs by SRB assay; conditions: UO-31, 48 h, read-out: GI
[8] = Cytotoxicity against human BT549 cells assessed as growth inhibition at 10 uM after 48 hrs by SRB assay; conditions: BT-549, 48 h, read-out: GI
A498 = experiment: Cytotoxicity against human A498 cells assessed as growth inhibition at 10 uM after 48 hrs by SRB assay; conditions: A498, 48 h, read-out: GI
A549 = experiment: Cytotoxicity against human A549 cells assessed as growth inhibition at 10 uM after 48 hrs by SRB assay; conditions: A549, 48 h, read-out: GI
[9] = Cytotoxicity against human UACC257 cells assessed as growth inhibition at 10 uM after 48 hrs by SRB assay; conditions: UACC-257, 48 h, read-out: GI
NCI-H522 = experiment: Cytotoxicity against human NCI-H522 cells assessed as growth inhibition at 10 uM after 48 hrs by SRB assay; conditions: NCI-H522, 48 h, read-out: GI
[10] = Cytotoxicity against human OVCAR8 cells assessed as growth inhibition at 10 uM after 48 hrs by SRB assay; conditions: OVCAR-8, 48 h, read-out: GI
[11] = Cytotoxicity against human Hs 578T cells assessed as growth inhibition at 10 uM after 48 hrs by SRB assay; conditions: read-out: GI
[12] = Cytotoxicity against human SNB75 cells assessed as growth inhibition at 10 uM after 48 hrs by SRB assay; conditions: SNB-75, 48 h, read-out: GI
Malme-3M = experiment: Cytotoxicity against human MALME-3M cells assessed as growth inhibition at 10 uM after 48 hrs by SRB assay; conditions: read-out: GI
[13] = Cytotoxicity against human SF539 cells assessed as growth inhibition at 10 uM after 48 hrs by SRB assay; conditions: SF-539, 48 h, read-out: GI
[14] = Cytotoxicity against human HOP92 cells assessed as growth inhibition at 10 uM after 48 hrs by SRB assay; conditions: HOP-92, 48 h, read-out: GI
M14 = experiment: Cytotoxicity against human M14 cells assessed as growth inhibition at 10 uM after 48 hrs by SRB assay; conditions: M14, 48 h, read-out: GI
[15] = Cytotoxicity against human OVCAR3 cells assessed as growth inhibition at 10 uM after 48 hrs by SRB assay; conditions: OVCAR-3, 48 h, read-out: GI
[16] = Cytotoxicity against human SNB19 cells assessed as growth inhibition at 10 uM after 48 hrs by SRB assay; conditions: SNB-19, 48 h, read-out: GI
T47D = experiment: Cytotoxicity against human T47D cells assessed as growth inhibition at 10 uM after 48 hrs by SRB assay; conditions: read-out: GI
U-251 = experiment: Cytotoxicity against human U251 cells assessed as growth inhibition at 10 uM after 48 hrs by SRB assay; conditions: U-251, 48 h, read-out: GI

`COc1cc2nc(SCC(=O)Nc3cc(OC)c(OC)c(OC)c3)n(-c3ccccc3)c(=O)c2cc1OC` gave an inhibition of growth at 10 µM [1] of 19%, an inhibition of growth at 10 µM (MDA-MB-231) of 16% and an inhibition of growth at 10 µM (CCRF-CEM) of 18%. The inhibition of growth at 10 µM (SN12C) was 11%, the inhibition of growth at 10 µM [2] was 12% and the inhibition of growth at 10 µM [3] was 17%. For the same compound, the inhibition of growth at 10 µM (SK-MEL-2) was 22%, the inhibition of growth at 10 µM [4] was 11% and the inhibition of growth at 10 µM (SK-MEL-5) was 10%. For the same compound, the inhibition of growth at 10 µM [5] was 19%, the inhibition of growth at 10 µM [6] was 10% and the inhibition of growth at 10 µM [7] was 34%. It also gave an inhibition of growth at 10 µM [8] of 13%, an inhibition of growth at 10 µM (A498) of 28% and an inhibition of growth at 10 µM (A549) of 14%. The inhibition of growth at 10 µM [9] was 26%, the inhibition of growth at 10 µM (NCI-H522) was 52% and the inhibition of growth at 10 µM [10] was 40%. The inhibition of growth at 10 µM [11] was 34%, the inhibition of growth at 10 µM [12] was 20% and the inhibition of growth at 10 µM (Malme-3M) was 20%. It also gave an inhibition of growth at 10 µM [13] of 17%, an inhibition of growth at 10 µM [14] of 32% and an inhibition of growth at 10 µM (M14) of 15%. It also gave an inhibition of growth at 10 µM [15] of 12%, an inhibition of growth at 10 µM [16] of 17% and an inhibition of growth at 10 µM (T47D) of 15%. It also gave an inhibition of growth at 10 µM (U-251) of 30%.
